According to the supplement of paper PMC10307832:

How the values were obtained:
Assay in all cases: relative viability (nuclei count vs DMSO), 5 days (fraction); higher = more cells survive
[1] = compound: CCOc1cc2ncc(C#N)c(Nc3ccc(OCc4ccccn4)c(Cl)c3)c2cc1NC(=O)/C=C/CN(C)C [Neratinib] + O=C(c1cc(Cc2n[nH]c(=O)c3ccccc23)ccc1F)N1CCN(C(=O)C2CC2)CC1 [Olaparib] (partner 8 µM)
Procedure, shortened: (§1)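 Nuclei were stained with Hoechst during a one-step fixation (final 0.05% Triton X-100, 1% formaldehyde, 1 ug/ml Hoechst) carried out 5 days after dosing, then counted on 4× images. The cells, lung cancer lines in 1536-well plates, had been dosed by pin tool the day after seeding with one drug alone or a fixed anchor-drug dose plus five library-drug doses (not always all listed) in √10 steps. Relative viability is the nuclei count in treated wells divided by that in vehicle wells, and each value is the median of duplicate plates.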

[2] = compound: CCOc1cc2ncc(C#N)c(Nc3ccc(OCc4ccccn4)c(Cl)c3)c2cc1NC(=O)/C=C/CN(C)C [Neratinib] + Cc1nc(NC(=O)N2CCC[C@H]2C(N)=O)sc1-c1ccnc(C(C)(C)C(F)(F)F)c1 [Alpelisib] (partner 2 µM)
Procedure, shortened: as §1

[3] = compound: CCOc1cc2ncc(C#N)c(Nc3ccc(OCc4ccccn4)c(Cl)c3)c2cc1NC(=O)/C=C/CN(C)C [Neratinib] + Nc1nc2[nH]cc(CCc3ccc(C(=O)N[C@@H](CCC(=O)O)C(=O)O)cc3)c2c(=O)[nH]1 [Pemetrexed] (partner 0.2 µM)
Procedure, shortened: as §1

[4] = compound: CCOc1cc2ncc(C#N)c(Nc3ccc(OCc4ccccn4)c(Cl)c3)c2cc1NC(=O)/C=C/CN(C)C [Neratinib] + CC(=O)c1c(C)c2cnc(Nc3ccc(N4CCNCC4)cn3)nc2n(C2CCCC2)c1=O [Palbociclib] (partner 0.5 µM)
Procedure, shortened: as §1

Row | Cell Line | relative viability ([1]; first compound 0.01 µM) | relative viability ([1]; first compound 0.03162 µM) | relative viability ([1]; first compound 0.1 µM) | relative viability ([1]; first compound 0.3162 µM) | relative viability ([1]; first compound 1 µM) | relative viability ([2]; first compound 0.01 µM) | relative viability ([2]; first compound 0.03162 µM) | relative viability ([2]; first compound 0.1 µM) | relative viability ([2]; first compound 0.3162 µM) | relative viability ([2]; first compound 1 µM) | relative viability ([3]; first compound 0.01 µM) | relative viability ([3]; first compound 0.03162 µM) | relative viability ([3]; first compound 0.1 µM) | relative viability ([3]; first compound 0.3162 µM) | relative viability ([3]; first compound 1 µM) | relative viability ([4]; first compound 0.01 µM) | relative viability ([4]; first compound 0.03162 µM) | relative viability ([4]; first compound 0.1 µM) | relative viability ([4]; first compound 0.3162 µM) | relative viability ([4]; first compound 1 µM)
1 | NCI-H2170 | 0.627 | 0.49 | 0.32 | 0.151 | 0.158 | 0.619 | 0.383 | 0.314 | 0.21 | 0.265 | 0.275 | 0.261 | 0.237 | 0.203 | 0.196 | 0.361 | 0.352 | 0.199 | 0.144 | 0.151
2 | NCI-H2228 | 0.943 | 0.576 | 0.589 | 0.425 | 0.199 | 0.702 | 0.703 | 0.599 | 0.497 | 0.243 | 0.382 | 0.362 | 0.306 | 0.271 | 0.147 | 0.666 | 0.95 | 0.765 | 0.655 | 0.169
3 | NCI-H2347 | – | 0.59 | 0.545 | 0.564 | 0.455 | 1.1 | 1.11 | 1.02 | 0.935 | 0.9 | 0.423 | 0.479 | 0.396 | 0.495 | 0.449 | 0.401 | 0.41 | 0.341 | 0.494 | 0.479
4 | NCI-H2405 | 0.892 | 0.93 | 0.85 | 0.908 | 0.619 | 0.815 | 0.808 | 0.811 | 0.633 | 0.287 | 1.19 | 1.16 | 1.02 | 1.04 | – | 0.56 | 0.579 | 0.534 | 0.567 | 0.419
5 | NCI-H3122 | 0.609 | 0.699 | 0.571 | 0.617 | 0.587 | 0.951 | 0.746 | 0.586 | 0.829 | 0.299 | 0.197 | 0.214 | 0.179 | 0.551 | 0.187 | 0.205 | 0.208 | 0.188 | 0.181 | 0.148
6 | PC-3 [JPC-3] | – | 1.29 | 0.964 | 0.81 | 0.424 | 1.07 | 1.07 | 1.02 | 0.918 | 0.316 | 1.44 | 1.32 | 1.07 | 0.564 | 0.43 | 0.513 | 0.559 | 0.492 | 0.544 | 0.471
7 | PC-14 | 0.188 | 0.344 | 0.37 | 0.233 | 0.102 | 1.04 | 0.978 | 0.83 | 0.732 | 0.208 | 0.128 | 0.118 | 0.14 | 0.141 | 0.0777 | 0.625 | 0.672 | 0.474 | 0.0909 | 0.0675
8 | RERF-LC-KJ | 0.925 | 0.911 | 0.828 | 0.848 | 0.468 | 0.842 | 0.841 | 0.709 | 0.577 | 0.394 | 0.484 | 0.483 | 0.505 | 0.477 | 0.405 | 1.16 | 1.16 | 1.08 | 0.84 | 0.467
9 | SK-LU-1 | 0.486 | 0.549 | 0.413 | 0.432 | 0.314 | 1.18 | 1.16 | 0.915 | 0.587 | 0.447 | 1.01 | 0.999 | 0.932 | 0.917 | 0.49 | 0.389 | 0.447 | 0.376 | 0.373 | 0.288
10 | SK-MES-1 | 0.807 | 0.778 | 0.631 | 0.264 | 0.233 | 0.914 | 0.988 | 0.661 | 0.384 | 0.207 | 1.01 | 0.925 | 0.89 | 0.529 | 0.308 | 0.3 | 0.327 | 0.329 | 0.281 | 0.247
11 | SW 1573 | 0.634 | 0.444 | 0.374 | 0.391 | 0.287 | 0.94 | – | 0.591 | 0.577 | 0.515 | – | 0.878 | 0.651 | 0.799 | 0.475 | 0.382 | 0.422 | 0.428 | 0.289 | 0.217
12 | UMC-11 | 0.362 | 0.388 | 0.33 | 0.361 | 0.299 | 0.721 | 0.988 | 0.96 | 0.963 | 0.802 | 0.786 | 0.785 | 0.525 | 0.683 | 0.51 | 0.321 | 0.327 | 0.319 | 0.335 | 0.243
